US8536113B2, “EGFR binding peptides and uses thereof” (Janssen Biotech, Inc., priority 2006, dated 2013)
Bridges are numbered along the chain shown (N, C = ends). Where no end group is shown, it is not given here.

What was measured:
sEGFR-MMB = target: T1, sEGFR-MMB (Homo sapiens, UniProt P00533); experiment: Phage ELISA screening of panning hits; assay type: binding; details: phage clone culture supernatant; background typically <200 units
T1 construct: made in house; host or cells: Human Embryonic Kidney cells (293E)
Experimental: Phage Screening. Individual phage clones from selections were amplified and screened for EGFR binding by phage ELISA. To amplify pIII phage for screening, phage eluates from round 3 were diluted appropriately and plated with a lawn of XL-1 Blue to yield isolated single plaques. 24 plaques from each pool were picked and inoculated into a culture of XL-1 Blue host cells. The cultures were shaken at 37° C. for 4.5 hr and the cells were removed by centrifugation. To amplify pIX-displaying phagemid clones, phage eluates were infected into XL-1 Blue and plated onto LB-ampicillin plates. Individual colonies were cultured in 1 ml volumes and rescued with VCS-M13 helper phage. Bacterial cells were removed from phage cultures by centrifugation at (2250×g, 7 min) and the phage-containing supernatant was saved.
The protein solution was removed and wells were rinsed twice with Tris-Buffered Saline containing 0.05% Tween-20 (TBS-T) using a plate washer (Embla). The wells were blocked with Starting Block in TBS for 1 hr at room temperature and rinsed twice with TBS-T. An equal volume of phage supernatant and Starting Block in TBS were incubated in the wells for 1 hr at room temperature, and the wells were rinsed five times with TBS-T. Anti-M13/horseradish peroxidase conjugate (Amersham), diluted 1:5000 in Starting Block in TBS, was added into the wells and incubated for 1 hour at room temperature, and then the wells were rinsed five times with TBS-T. Finally, chemiluminescent peroxidase substrate (Roche) was added to the wells, and chemiluminescence was measured on a Tecan plate reader.
Sequences and ELISA signal (background typically <200 units) are given, along with a consensus sequence, if any. Cysteines that are fixed in the library design are underlined.

A431 cells [1] = experiment: Flow cytometry of phage binding to tumor cells; assay type: cell-based, human; details: for binding to A431 tumor cells: anti-phage-FITC antibody, 4° C.
Experimental: (§1) Flow cytometry. To evaluate whether the selected peptides from phage display can bind to tumor cells that overexpress EGFR, A431 cells (epidermoid cancer) or an EGFR negative tumor cells, MCF-7 (breast carcinoma) were tested in a flow cytometry assay using fluorescence detection (FACS). For P145, PP146 and their control phage, 2.5×10^5 A431 cells were resuspended in 25 μl of flow staining buffer (dPBS with 1% BSA, 0.09% sodium azide) and incubated with 25 μl of phage clones for 1 hour at 4° C. […] Cells were washed two times with flow staining buffer and then incubated with 0.5 μg of mouse anti M13/fd/F1 filamentous phages monoclonal antibody conjugated to FITC (Fitzgerald Industries International, Inc. Concord, Mass.) for 45 minutes at 4° C. Cells were washed two times with flow staining buffer and acquired by FACSCalibur (BD, Franklin Lakes, N.J.) to detect bound phages on tumor cell surface. Results.
(§2) A431 cells (epidermoid cancer) which overexpress EGFR and EGFR-negative tumor cells, MCF-7 (breast carcinoma) were tested in a flow cytometry assay. Tumor cells (A431 and MCF-7) were harvested with 0.25% tyrpsin-EDTA and washed twice with FACS staining buffer (dPBS with 1% BSA, 0.09% sodium azide). […] After binding at 4° C., cells were washed twice with FACS staining buffer to remove unbound phage and then incubated with 0.5 μg of mouse anti-M13 monoclonal antibody conjugated to FITC (Fitzgerald Industries International, Inc. Concord, Mass.) for 1 hour at 4° C. Mouse anti-M13-FITC incubated with cells without phage was used as background binding. Cells were washed twice with FACS staining buffer to remove unbound detection antibody.

MCF-7 = experiment: Flow cytometry of phage binding to EGFR negative tumor cells; assay type: cell-based, human; details: EGFR positive versus EGFR negative cells
Experimental: as §1, §2

[2] = target: T2, complex between EGF and sEGFR-MMB (Homo sapiens, UniProt P00533); experiment: Phage ELISA binding studies on P190, receptor with added EGF; details: Table 10; listed as pIX-190
T2 construct: made in house
Experimental: The plates were held overnight at room temperature, washed twice with TBST (0.5M Tris Base, 9% NaCl, 0.05% tween, pH 7.6), and loaded with 200 μL per well of Starting Block (Pierce). […] The plates were held at room temperature for 1.5 hours for blocking. Plates were then washed twice with TBST and phage were added. The phage solutions were crude phage supernatant from overnight cultures diluted four-fold with Starting Block. After a one-hour incubation, the plates were washed thrice with TBST and 100 μL of a 1:5000 dilution of phage binding antibody conjugate (α-M13-HRP) was added to the wells. EGF was added if applicable. After a one-hour incubation the plates were washed five times with TBST, 100 μL of POD (BM Chemiluminescence ELISA substrate; Roche Applied Science) was added, and chemiluminescence recorded.

A431 cells [3] = experiment: Internalization of biotinylated P190 by FACS and confocal microscopy; assay type: cell-based, human; details: 37° C.
Experimental: The complexes were added to A431 cells that had been pre-incubated in PBS with or without EGF for 15 minutes and then incubated for an additional hour. Cells were washed to remove unbound complexes and split into two separate tubes, one of which stayed at 4° C. and one of which was incubated for 2 hours at 37° C. to promote internalization. Again, cells were washed and further split into 2 groups with one tube from each temperature undergoing acid wash treatment to remove surface-bound biotinylated peptide. Cells were washed again in FACS staining buffer and peptide binding and internalization were acquired by FACSCalibur (BD, Franklin Lakes, N.J.) and analyzed by Cell Quest software. The remaining cells from both 4° C. and 37° C. without acid wash after FACS analysis were centrifuged and resuspended with 50 μL mounting medium containing DAPI (Vector Laboratory Inc. Burlingame, Calif.). Ten μL of cells in mounting medium were transferred to a glass slide, covered with thin glass slips and examined by confocal microscopy.

## KTCVSTTFDLWFVCFA (disulfide 3-14 (inferred)) [P176]
sEGFR-MMB
  ELISA signal: 37440 units
A431 cells [1]
  binding to A431 relative to positive control EGF phage: comparable to that by a positive control phage
  binding to A431 tumor cells: displayed binding

## SGCLDALWQCVY (S16 and S17 hits Phage 174) [P174]
MCF-7
  binding to A431 compared with MCF-7: greater to A431 than to MCF-7
sEGFR-MMB
  ELISA signal: 34641 units
A431 cells [1]
  binding to A431 relative to positive control EGF phage: comparable to that by a positive control phage
  binding to A431 tumor cells: displayed binding

## VLCHRYYHPICYT [P145]
MCF-7
  binding to A431 compared with MCF-7: greater binding to A431 than MCF-7 cells
A431 cells [1]
  binding to A431 relative to positive control EGF phage: weaker than that exhibited by a positive control phage
  binding to A431 tumor cells: displayed binding

## TLCRSFFHPLCYA (Sequences of EGFR-Binding Peptides from pIII phage library (CNL5 P146))
A431 cells [1]
  binding to A431 relative to positive control EGF phage: weaker than that exhibited by a positive control phage
  binding to A431 tumor cells: displayed binding

## DPCTWEVWGRECLQ [P190]
[2]
  Binds EGF + SEGFR-MMB Complex: increased in the presence of EGF or TGF-a
MCF-7
  binding to A431 compared with MCF-7: bound more effectively to A431 cells
MCF-7; listed as pIII-190
  binding to A431 compared with MCF-7: bind to A431 but not to MCF-7
MCF-7; listed as pIX-190
  binding to A431 compared with MCF-7: bind to A431 but not to MCF-7
A431 cells [3]
  internalization into EGFR^+ cells: is internalized
A431 cells [1]
  phage binding to A431 cells in the presence of EGF: increased
  phage binding to A431 cells in the presence of EGF and cetuximab: decreases

## 44 (WMCFLEGYGASLMCQC; Peptide family identified from the S20 library) [compound 44]
sEGFR-MMB
  ELISA signal: 4795 units

## 35 (RGCVVFGDNIYCIV; Peptide family identified from the S18 library) [compound 35]
sEGFR-MMB
  ELISA signal: 21963 units

## 47 (SVCVGTAFPGWMVCGP; Peptide family identified from the S20 library) [compound 47]
sEGFR-MMB
  ELISA signal: 4771 units

## 27 (DSCIQFANLLYCAI; Peptide family identified from the S18 library) [compound 27]
sEGFR-MMB
  ELISA signal: 53162 units

## 19 (GADTLPDLLCWESSL; S15 library, which displays a random linear 15-mer) [compound 19]
sEGFR-MMB
  ELISA signal: 5722 units

## 39 (GPCVLIRDYYLLCLE; disulfide 3-13 (inferred)) [compound 39]
sEGFR-MMB
  ELISA signal: 13951 units

## 20 (TVFTLPELVCVVAGT; S15 library, which displays a random linear 15-mer) [compound 20]
sEGFR-MMB
  ELISA signal: 1515 units

## 34 (YDCVSFGAVAYCPQ; Peptide family identified from the S18 library) [compound 34]
sEGFR-MMB
  ELISA signal: 3205 units

## 37 (MICYLVDSGNIICYK; Peptide family identified from the S19 library) [compound 37]
sEGFR-MMB
  ELISA signal: 8806 units

## 28 (TDCIRFGVLWYCLV; Peptide family identified from the S18 library) [compound 28]
sEGFR-MMB
  ELISA signal: 4746 units

## 31 (TDCVIFGLETYCLR; disulfide 3-12 (inferred)) [compound 31]
sEGFR-MMB
  ELISA signal: 37925 units

## RWCYFWWITICEL (S16 and S17 hits Phage 178) [P178]
sEGFR-MMB
  ELISA signal: 7913 units
